Assay results taken from PMC8359193, “Summary of reference chemicals evaluated by the fish short‐term reproduction assay, OECD TG229, using Japanese Medaka, Oryzias latipes” (Journal of Applied Toxicology, 2021).

Molecular target: T1, medaka Esr1 (mEsr1) (Oryzias latipes, UniProt P50241)
T1 construct: expressed in transfected cells; host or cells: HEK293 (human embryonic kidney cells), transient transfection with FuGENE HD
T1 sequence (P50241 1-620): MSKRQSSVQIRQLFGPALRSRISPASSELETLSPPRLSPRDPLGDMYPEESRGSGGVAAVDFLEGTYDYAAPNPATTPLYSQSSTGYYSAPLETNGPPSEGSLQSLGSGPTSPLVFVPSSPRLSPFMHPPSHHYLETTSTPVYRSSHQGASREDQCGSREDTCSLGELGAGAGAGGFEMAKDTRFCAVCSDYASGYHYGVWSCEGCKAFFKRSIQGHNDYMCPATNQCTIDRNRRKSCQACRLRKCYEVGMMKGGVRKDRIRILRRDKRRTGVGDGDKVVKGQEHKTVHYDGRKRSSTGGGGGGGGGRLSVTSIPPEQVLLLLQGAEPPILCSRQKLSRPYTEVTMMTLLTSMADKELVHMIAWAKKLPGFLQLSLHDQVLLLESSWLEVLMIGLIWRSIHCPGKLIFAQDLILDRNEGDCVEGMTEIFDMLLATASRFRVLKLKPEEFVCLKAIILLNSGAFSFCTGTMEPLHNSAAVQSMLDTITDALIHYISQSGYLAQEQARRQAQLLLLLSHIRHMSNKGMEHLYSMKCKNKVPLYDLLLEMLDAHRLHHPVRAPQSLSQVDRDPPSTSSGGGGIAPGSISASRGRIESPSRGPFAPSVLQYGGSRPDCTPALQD
Test: Medaka Esr1 reporter gene assay (RGA), antagonist assay with 1 nM E2, HEK293 cells
Format: cell-based, Japanese medaka (Oryzias latipes)
Protocol: To support interpretation of the biological effects observed in the FSTRA studies, in vitro RGAs using medaka Esr1 (mEsr1) and medaka ARβ (mARβ) were performed for the 16 test chemicals. In the present study, Esr1 and ARβ, which are ancestral subtypes among Esrs and ARs in Japanese medaka, were selected based on the phylogenetical analyses of Esr and AR with each receptor RGAs (Ogino et al., [2016], [2018]; Tohyama et al., [2015]).
The mEsr1 RGA consisting of agonist and antagonist assays were performed according to the methods previously reported (Katsu et al., [2010]; Lange et al., [2012]; Miyagawa et al., [2014]). Briefly, human embryonic kidney cells 293 (HEK293), precultured, were seeded in 96‐well plates at 15,000 cells/well with 200 μl of culture medium, phenol‐red‐free Dulbecco's Modified Eagle's medium (ThermoFisher Scientific K.K., Tokyo, Japan) supplemented with 2‐mM L‐glutamine and 10% charcoal/dextran‐treated fetal bovine serum (Hyclone, UT, USA), and then incubated for 24 h in 5% CO2 at 37°C. After the 24‐h incubation, 20 μl of test medium containing 40 ng of medaka Esr1/pcDNA3.1, 80 ng of ERE‐TK‐Luc, and 20 ng of pRL‐TK‐Rlu and 1.2 μL of transfection reagent FuGENE HD (Promega, WI, USA) were added into each well. The assay plates were incubated for another 4 h in order to transfect the three vectors into the HEK293 cells. After the vectors were successfully transfected, in agonist assay, 24 μl of concentrated test chemical solution was applied to the test medium in the plate wells. […] After chemical treatment for 40 h, luciferase activity of the cells was measured, and the promoter activity was calculated as firefly (Photinus pyralis)‐/sea pansy (Renilla reniformis)‐luciferase activity in each well. The luciferase activities were quantified by a chemiluminescence assay with Dual‐Luciferase Reporter Assay System (Promega) in accordance with the manufacturer's instructions, and luminescence intensity of firefly and sea pansy luciferin was measured using a luminometer, TriStar LB941 (Berthold Technology, Oak Ridge, TN, USA).
Effect concentrations, that is, EC50 (a half maximal effective concentration) in the agonist assay and IC50 (a half maximal inhibitory concentration) in the antagonist assay, were estimated by nonlinear curve fitting (e.g., three parameters logistic regression curve) using GraphPad Prism (GraphPad Software Inc., La Jolla, CA, USA).

IC50: 0.52 nM
Structure (SMILES): CC/C(=C(\c1ccc(O)cc1)c1ccc(OCCN(C)C)cc1)c1ccccc1 [4HTAM, 4‐hydroxytamoxifen]
